Reference: US20240293421A1, “CRYSTALLINE COMPOSITION OF TILDACERFONT AND METHODS OF USE AND PREPARATION THEREOF” (Spruce Biosciences, Inc., priority 2021, published 2024)

Assays:
[1] = Stability under accelerated aging conditions (40±2° C./75±5% RH); assay type: physicochemical; set-up: key to Related Substances by HPLC: a. C07102401-F-Imp1 / Related Substances by HPLC: b. C07102401-F-Imp2 / Related Substances by HPLC: c. Any unspecified impurity / Related Substances by HPLC: d. Total impurities: BDRL: below disregard limit; settings: for Description / Identification by FT-IR / Identification by XRPD / Related Substances by HPLC: a. C07102401-F-Imp1 / Related Substances by HPLC: b. C07102401-F-Imp2 / Related Substances by HPLC: c. Any unspecified impurity / Related Substances by HPLC: d. Total impurities / Water Content by KF / Assay of Compound 1 by HPLC: accelerated aging 40±2° C./75±5% RH; for Assay of Compound 1 by HPLC: on anhydrous basis and solvent free basis
Text: (§1) To determine the stability of the crystalline compositions prepared comprising the methods described herein, crystalline compositions comprising Compound 1 and oxalic acid were formulated. Samples of the crystalline composition comprising Compound 1-oxalic acid co-crystal were packed in a transparent low-density polyethylene (LDPE) bag, and closed by twisting the bag and tying it with a strip seal. The transparent LDPE bag was then placed in a black LDPE bag that was twisted and tied with a strip seal. The bags were then placed in a high-density polyethylene container. The samples were then subjected to accelerated aging conditions (40±2° C./75±5% relative humidity (RH)) or long-term storage conditions (25±2° C./60±5% RH). Sample stability measurements in each condition were measured at baseline (before exposure to accelerated aging conditions or long-term storage conditions), and one month, two months, and three months after exposure to said conditions. Sample stability measurements included a description of the sample's physical appearance (e.g., color and form), identification by Fourier-transform infrared spectroscopy (FT-IR), identification by X-ray powder diffraction (XRPD), water content (measured by Karl Fischer (KF) on a % weight/weight basis), identification of related substances (e.g., impurities), and high-performance liquid chromatography ((HPLC) measured on a % weight/weight on an anhydrous basis and solvent free basis). Samples of the crystalline composition comprising Compound 1-oxalic acid co-crystal prepared in Example 3 are subjected to accelerated aging conditions (40±2° C./75±5% relative humidity (RH)) or long-term storage conditions (25±2° C./60±5% RH). Sample stability measurements in each condition are measured at baseline (before exposure to accelerated aging conditions or long-term storage conditions), and four months, five months, six months, seven months, eight months, nine months, ten months, eleven months, twelve months, fourteen months, sixteen months, and eighteen months after exposure to said conditions. Sample stability measurements include a description of the sample's physical appearance (e.g., color and form), identification by Fourier-transform infrared spectroscopy (FT-IR), identification by X-ray powder diffraction (XRPD), water content (measured by Karl Fischer (KF) on a % weight/weight basis), identification of related substances (e.g., impurities), and high-performance liquid chromatography ((HPLC) measured on a % weight/weight on an anhydrous basis and solvent free basis).

[2] = Stability under long-term storage conditions (25±2° C./60±5% RH); assay type: physicochemical; set-up: key to Related Substances by HPLC: a. C07102401-F-Imp1 / Related Substances by HPLC: b. C07102401-F-Imp2 / Related Substances by HPLC: c. Any unspecified impurity / Related Substances by HPLC: d. Total impurities: BDRL: below disregard limit; settings: for Description / Identification by FT-IR / Identification by XRPD / Related Substances by HPLC: a. C07102401-F-Imp1 / Related Substances by HPLC: b. C07102401-F-Imp2 / Related Substances by HPLC: c. Any unspecified impurity / Related Substances by HPLC: d. Total impurities / Water Content by KF / Assay of Compound 1 by HPLC: long-term storage 25±2° C./60±5% RH; for Assay of Compound 1 by HPLC: on anhydrous basis and solvent free basis
Text: as §1

Which Description ([1]; 1 month) does the source give for `CCC(CC)c1cc(C)nc2c(-c3sc(N4CCOCC4)nc3Cl)c(C)nn12` [Compound 1-oxalic acid co-crystal] here?
The Description was “Light yellow”.

And the “Identification by FT-IR” value ([1]; 1 month)?
Its value is “concordant”.

What about the “Identification by XRPD” value ([1]; 1 month) of the same compound?
Its value is “is consistent”.

What about the “Related Substances by HPLC: a. C07102401-F-Imp1” value ([1]; 1 month) of the same compound?
The value was “BDRL”.

What about the “Related Substances by HPLC: b. C07102401-F-Imp2” value ([1]; 1 month) of the same compound?
Its value is “BDRL”.

What about the “Related Substances by HPLC: c. Any unspecified impurity” value ([1]; 1 month) of the same compound?
Its value is “BDRL”.

What about the “Related Substances by HPLC: d. Total impurities” value ([1]; 1 month) of the same compound?
Its value is “BDRL”.

What about the “Water Content by KF” value ([1]; 1 month) of the same compound?
Its value is 0.09 % w/w.

What about the Description ([1]; 2 months) of the same compound?
Its Description is “Light yellow”.

And the “Identification by FT-IR” value ([1]; 2 months)?
Its value is “concordant”.

And the “Identification by XRPD” value ([1]; 2 months)?
Its value is “is consistent”.

What about the “Related Substances by HPLC: a. C07102401-F-Imp1” value ([1]; 2 months) of the same compound?
The value was “BDRL”.

And the “Related Substances by HPLC: b. C07102401-F-Imp2” value ([1]; 2 months)?
The value was “BDRL”.

And the “Related Substances by HPLC: c. Any unspecified impurity” value ([1]; 2 months)?
Its value is “BDRL”.

What about the “Related Substances by HPLC: d. Total impurities” value ([1]; 2 months) of the same compound?
The value was “BDRL”.

And the “Water Content by KF” value ([1]; 2 months)?
Its value is 0.02 % w/w.

And the Description ([1]; 3 months)?
The Description was “Light yellow”.

What about the “Identification by FT-IR” value ([1]; 3 months) of the same compound?
Its value is “concordant”.

And the “Identification by XRPD” value ([1]; 3 months)?
The value was “is consistent”.

What about the “Related Substances by HPLC: a. C07102401-F-Imp1” value ([1]; 3 months) of the same compound?
Its value is “BDRL”.

And the “Related Substances by HPLC: b. C07102401-F-Imp2” value ([1]; 3 months)?
Its value is “BDRL”.

And the “Related Substances by HPLC: c. Any unspecified impurity” value ([1]; 3 months)?
Its value is “BDRL”.

And the “Related Substances by HPLC: d. Total impurities” value ([1]; 3 months)?
Its value is “BDRL”.

What about the “Water Content by KF” value ([1]; 3 months) of the same compound?
Its value is 0.08 % w/w.

What about the Description ([1]; baseline) of the same compound?
The Description was “Light yellow”.

And the “Identification by FT-IR” value ([1]; baseline)?
Its value is “concordant”.

What about the “Identification by XRPD” value ([1]; baseline) of the same compound?
Its value is “is consistent”.

What about the “Related Substances by HPLC: a. C07102401-F-Imp1” value ([1]; baseline) of the same compound?
The value was “BDRL”.

And the “Related Substances by HPLC: b. C07102401-F-Imp2” value ([1]; baseline)?
The value was “BDRL”.

What about the “Related Substances by HPLC: c. Any unspecified impurity” value ([1]; baseline) of the same compound?
Its value is “BDRL”.

What about the “Related Substances by HPLC: d. Total impurities” value ([1]; baseline) of the same compound?
Its value is “BDRL”.

And the “Water Content by KF” value ([1]; baseline)?
The value was 0.02 % w/w.

What about the “Assay of Compound 1 by HPLC” value ([1]; 1 month) of the same compound?
Its value is 99.2 % w/w.

What about the “Assay of Compound 1 by HPLC” value ([1]; 2 months) of the same compound?
Its value is 100.1 % w/w.

And the “Assay of Compound 1 by HPLC” value ([1]; 3 months)?
Its value is 99.2 % w/w.

What about the “Assay of Compound 1 by HPLC” value ([1]; baseline) of the same compound?
The value was 99.9 % w/w.

What about the “Stability (overall conclusion)” value ([1]; up to 3 months at accelerated aging conditions (40±2° C./75±5% RH)) of the same compound?
Its value is “stable”.

And the Description ([2]; 1 month)?
The Description was “Light yellow”.

And the “Identification by FT-IR” value ([2]; 1 month)?
The value was “concordant”.

And the “Identification by XRPD” value ([2]; 1 month)?
The value was “is consistent”.

What about the “Related Substances by HPLC: a. C07102401-F-Imp1” value ([2]; 1 month) of the same compound?
Its value is “BDRL”.

And the “Related Substances by HPLC: b. C07102401-F-Imp2” value ([2]; 1 month)?
The value was “BDRL”.

And the “Related Substances by HPLC: c. Any unspecified impurity” value ([2]; 1 month)?
Its value is “BDRL”.

And the “Related Substances by HPLC: d. Total impurities” value ([2]; 1 month)?
The value was “BDRL”.

What about the “Water Content by KF” value ([2]; 1 month) of the same compound?
Its value is 0.10 % w/w.

And the Description ([2]; 2 months)?
The Description was “Light yellow”.

What about the “Identification by FT-IR” value ([2]; 2 months) of the same compound?
The value was “concordant”.

And the “Identification by XRPD” value ([2]; 2 months)?
The value was “is consistent”.

What about the “Related Substances by HPLC: a. C07102401-F-Imp1” value ([2]; 2 months) of the same compound?
Its value is “BDRL”.

And the “Related Substances by HPLC: b. C07102401-F-Imp2” value ([2]; 2 months)?
The value was “BDRL”.

What about the “Related Substances by HPLC: c. Any unspecified impurity” value ([2]; 2 months) of the same compound?
The value was “BDRL”.

And the “Related Substances by HPLC: d. Total impurities” value ([2]; 2 months)?
The value was “BDRL”.

What about the “Water Content by KF” value ([2]; 2 months) of the same compound?
The value was 0.03 % w/w.

And the Description ([2]; 3 months)?
The Description was “Light yellow”.

And the “Identification by FT-IR” value ([2]; 3 months)?
Its value is “concordant”.

And the “Identification by XRPD” value ([2]; 3 months)?
The value was “is consistent”.

What about the “Related Substances by HPLC: a. C07102401-F-Imp1” value ([2]; 3 months) of the same compound?
Its value is “BDRL”.

What about the “Related Substances by HPLC: b. C07102401-F-Imp2” value ([2]; 3 months) of the same compound?
Its value is “BDRL”.

And the “Related Substances by HPLC: c. Any unspecified impurity” value ([2]; 3 months)?
The value was “BDRL”.

What about the “Related Substances by HPLC: d. Total impurities” value ([2]; 3 months) of the same compound?
Its value is “BDRL”.

And the “Water Content by KF” value ([2]; 3 months)?
The value was 0.05 % w/w.

What about the Description ([2]; baseline) of the same compound?
Its Description is “Light yellow”.

What about the “Identification by FT-IR” value ([2]; baseline) of the same compound?
Its value is “concordant”.

What about the “Identification by XRPD” value ([2]; baseline) of the same compound?
The value was “is consistent”.

And the “Related Substances by HPLC: a. C07102401-F-Imp1” value ([2]; baseline)?
The value was “BDRL”.

What about the “Related Substances by HPLC: b. C07102401-F-Imp2” value ([2]; baseline) of the same compound?
Its value is “BDRL”.

And the “Related Substances by HPLC: c. Any unspecified impurity” value ([2]; baseline)?
Its value is “BDRL”.

What about the “Related Substances by HPLC: d. Total impurities” value ([2]; baseline) of the same compound?
The value was “BDRL”.

What about the “Water Content by KF” value ([2]; baseline) of the same compound?
Its value is 0.02 % w/w.

What about the “Assay of Compound 1 by HPLC” value ([2]; 1 month) of the same compound?
The value was 99.2 % w/w.

And the “Assay of Compound 1 by HPLC” value ([2]; 2 months)?
Its value is 100.1 % w/w.

What about the “Assay of Compound 1 by HPLC” value ([2]; 3 months) of the same compound?
Its value is 99.2 % w/w.

And the “Assay of Compound 1 by HPLC” value ([2]; baseline)?
The value was 99.9 % w/w.

And the “Stability (overall conclusion)” value ([2]; up to 3 months at long-term storage conditions (25±2° C./60±5% RH))?
Its value is “stable”.
